The text below walks through data of patent EP2072514A1, “1(2)H-tetrazol-5-yl-phenyl-oxazolidinones as antibacterial agents” (Ferrer Internacional, S.A., priority 2007, dated 2009).

For one experiment, the target named is T1, human MAO-A (Homo sapiens, UniProt P21397).
T1 construct: purchased Gentest, BD, USA; host or cells: SF9 cells (membranes)
T1 sequence (P21397 1-527): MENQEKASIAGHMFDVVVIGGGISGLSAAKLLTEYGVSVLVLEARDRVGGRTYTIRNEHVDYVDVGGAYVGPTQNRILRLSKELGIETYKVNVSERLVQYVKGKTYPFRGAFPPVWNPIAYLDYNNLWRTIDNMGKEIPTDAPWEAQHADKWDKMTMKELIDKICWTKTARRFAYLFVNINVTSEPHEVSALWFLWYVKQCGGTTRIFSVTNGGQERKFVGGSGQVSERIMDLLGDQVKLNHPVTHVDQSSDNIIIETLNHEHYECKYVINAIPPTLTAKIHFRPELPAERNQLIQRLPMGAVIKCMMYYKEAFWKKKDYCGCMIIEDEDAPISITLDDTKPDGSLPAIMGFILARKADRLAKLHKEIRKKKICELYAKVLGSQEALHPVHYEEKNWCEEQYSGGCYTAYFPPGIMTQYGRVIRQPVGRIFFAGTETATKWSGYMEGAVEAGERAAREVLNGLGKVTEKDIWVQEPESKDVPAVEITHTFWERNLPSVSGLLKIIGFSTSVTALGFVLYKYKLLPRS
Kind of experiment: In vitro MAO-A enzymatic activity (kynuramine substrate, fluorometry). In kind it is biochemical. As to conditions: membranes from SF9 cells expressing human MAO-A; kynuramine 30 µM, 37° for 40 min. On the procedure: (§1) MAO-A and MAO-B enzymatic activities were measured using membranes obtained from SF9 cells expressing either human MAO-A or human MAO-B (Gentest, BD, USA). Assays were done in blank 96-well micro titter plates using kynuramine as substrate and measuring the formation of 4-hydroxyquinoline by fluorescence at 340 nm/465 nm. Briefly, membranes with MAO-A (0.006 mg/mL protein) and MAO-B (0.015 mg/mL protein) were incubated with kynuramine, 30 µM), at 37° for 40 min in the presence of the compound in a final volume of 200 µL. Reactions were stopped by adding NaOH 2N and the reaction product, 4-hydroxyquinoline, was determined by fluorometry using a Tecan Ultra reader.

The target of a further experiment is T2, human MAO-B (Homo sapiens, UniProt P27338).
T2 construct: purchased Gentest, BD, USA; host or cells: SF9 cells (membranes)
T2 sequence (P27338 1-520): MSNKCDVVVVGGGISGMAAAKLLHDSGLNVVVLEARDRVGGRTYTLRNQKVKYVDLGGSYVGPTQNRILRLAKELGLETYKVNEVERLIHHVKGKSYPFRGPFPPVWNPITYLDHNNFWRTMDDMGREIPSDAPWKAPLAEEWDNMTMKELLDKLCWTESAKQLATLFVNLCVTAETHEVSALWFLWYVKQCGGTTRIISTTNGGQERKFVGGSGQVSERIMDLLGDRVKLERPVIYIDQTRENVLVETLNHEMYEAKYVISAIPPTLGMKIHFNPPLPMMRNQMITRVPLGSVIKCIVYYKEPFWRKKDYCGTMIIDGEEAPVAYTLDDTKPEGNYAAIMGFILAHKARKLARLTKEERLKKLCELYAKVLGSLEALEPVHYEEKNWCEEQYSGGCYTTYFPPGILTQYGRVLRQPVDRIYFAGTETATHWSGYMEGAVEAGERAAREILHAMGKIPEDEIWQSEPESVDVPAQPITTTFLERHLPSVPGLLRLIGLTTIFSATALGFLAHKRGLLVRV
As to the kind of experiment: In vitro MAO-B enzymatic activity (kynuramine substrate, fluorometry). In kind it is biochemical. As to conditions: membranes from SF9 cells expressing human MAO-B; kynuramine 30 µM, 37° for 40 min. The method, then: as §1

In another experiment the test system is S. pneumoniae. Kind of experiment: MIC by standard micro dilution method (NCCLS M7-A5). In kind it is cell-based, Streptococcus pneumoniae. As to conditions: 20-24h at 35°C; for MIC: Streptococcus pneumoniae, 5% CO2, read-out: Geometric Mean MIC.
Another experiment concerns S. Aureus MR. The description is as above. In kind it is cell-based, Staphylococcus aureus. As to conditions: Mueller-Hinton medium (cation-adjusted), 16-24 h at 35°C; for MIC: Staphylococcus aureus, read-out: Geometric Mean MIC.
The test system of a further experiment is S. epidermidis. Described as above. The experiment is classed as cell-based, Staphylococcus epidermidis. As to conditions: Mueller-Hinton medium (cation-adjusted), 16-24 h at 35°C; for MIC: Staphylococcus epidermidis, read-out: Geometric Mean MIC.
Experiment [1] concerns Moxarella, Pasteurella and Bacteroides spp. As to conditions: background art; cited from earlier work.

Values after ≈ are worked out from the molar mass of the structure shown.

In general, Ki refers to the dissociation constant of the complex between target and ligand, obtained from inhibition or displacement. Higher therefore signals a looser hold on the target. For `CC(=O)NC[C@H]1CN(c2ccc(-c3nnn(CCO)n3)c(F)c2)C(=O)O1` [Example 7, N-[[(5S)-3-[3-fluoro-4-(2-hydroxyethyl-2H-tetrazol-5-yl)-phenyl]-2-oxo-5-oxazolidinyl]methyl]acetamide], the Ki on human MAO-A worked out at 28.8 µM; at human MAO-B it was 8.1 µM.
The term MIC denotes the least concentration at which growth counts as inhibited. `CC(=O)NC[C@H]1CN(c2ccc(-c3nnnn3C)c(F)c2)C(=O)O1` [Example 2, N-[[(5S)-3-[3-fluoro-4-(1-methyl-1H-tetrazol-5-yl)-phenyl]-2-oxo-5-oxazolidinyl]methyl]acetamide]: the inhibition constant Ki at human MAO-A was determined as 74.2 µM; on human MAO-B, 14.2 µM. Besides, the MIC in the experiment on S. pneumoniae, in the experiment on S. Aureus MR and in the experiment with S. epidermidis was 2 µg/mL (≈ 5.98 µM) each time.
Take `CC(=O)NC[C@H]1CN(c2ccc(N3CCOCC3)c(F)c2)C(=O)O1` [Linezolid, N-[[(5S)-3-[3-fluoro-4-(4-morpholinyl)phenyl]-2-oxo-5-oxazolidinyl]methyl]acetamide, reference compound]: the MICs in experiment [1] was 2 to 8 µg/mL. For the same compound, the MIC in the experiment with S. pneumoniae, in the experiment on S. Aureus MR and in the experiment with S. epidermidis was 1 µg/mL (≈ 2.96 µM) each time.
For the compound “N-[[(5S)-3-[3-fluoro-4-(2-acetoacetyl-2H-tetrazol-5-yl)-phenyl]-2-oxo-5-oxazolidinyl]methyl]acetamide [Example 6]”, the values for the inhibitory constant (Ki) on human MAO-A and at human MAO-B were 37.1 µM and 10.1 µM, respectively.
Regarding “N-[[(5S)-3-[3-fluoro-4-(1-hydroxyethyl-1H-tetrazol-5-yl)-phenyl]-2-oxo-5-oxazolidinyl]methyl]acetamide [Example 8]”, the entries for the “Geometric Mean MIC” value in the experiment with S. pneumoniae (5% CO2), in the experiment with S. Aureus MR and in the experiment with S. epidermidis were 2 µg/mL, 2 µg/mL and 1 µg/mL, respectively.
